Structures are written as SMILES.

In ChEMBL document CHEMBL1145508, “Role of homoserine transacetylase as a new target for antifungal agents” (Antimicrob Agents Chemother, 2007) one finds IC50 and Ki data, which are given here for 1 compound.

Experiment [1] can be described thus: Inhibition of Schizosaccharomyces pombe HTA in presence of 10 uM acetyl-CoA substrate.
Experiment [2] can be described thus: Inhibition of Cryptococcus neoformans H99 HTA expressed in Escherichia coli BL21(DE3) cells.
The nature of experiment [3]: Inhibition of Schizosaccharomyces pombe HTA in presence of 100 uM acetyl-CoA substrate.

With `NC(=O)c1cccc2c1NC(C(=O)O)C1CC=CC21` (centres undefined), the IC50 in experiment [1] came to 156 µM; in experiment [2], 4.5 µM; in experiment [3], 287 µM. The compound further registered a Ki in experiment [2] of 91.7 µM.

By IC50 is commonly meant the concentration at which inhibition is half-maximal. The term Ki denotes the dissociation constant of the complex between target and ligand, obtained from inhibition or displacement.
